Assay results reported in ChEMBL document CHEMBL3867425, “Synthesis and cytotoxicity evaluation of aryl triazolic derivatives and their hydroxymethine homologues against B16 melanoma cell line” (Eur J Med Chem, 2016).

Assay: Cytotoxicity against mouse B16 cells assessed as decrease in cell viability after 48 hrs by MTT assay
Assay type: functional, cell-based
Settings: B16, 48 h

| Structure (SMILES) | IC50 [µM] |
| --- | --- |
| COc1ccc(Cn2cc(-c3ccc(OC)cc3)nn2)cc1 | > 100 |
| Cc1ccc(C(O)c2cn(Cc3ccccc3)nn2)cc1 (stereo unspecified) | > 100 |
| COc1ccc(-c2cn(C[C@H]3COC(C)(C)O3)nn2)cc1 | > 100 |
| COc1ccc(C(O)c2cn(C[C@H]3COC(C)(C)O3)nn2)cc1 (stereo partly specified) | > 100 |
| CCOC(=O)Cn1cc(C(O)c2ccc3ccccc3c2)nn1 (stereo unspecified) | > 100 |
| COc1ccc(Cn2cc(C(O)c3ccc(OC)c(OC)c3OC)nn2)cc1 (stereo unspecified) | > 100 |
| COc1ccc(Cn2cc(-c3ccc([N+](=O)[O-])cc3)nn2)cc1 | 19.1 |
| CC1(C)OC[C@H](Cn2cc(-c3ccc(C(F)(F)F)cc3)nn2)O1 | > 100 |
| COc1ccc(Cn2cc(-c3ccc(C(F)(F)F)cc3)nn2)cc1 | 17.4 |
| COc1ccc(Cn2cc(-c3ccc4ccccc4c3)nn2)cc1 | > 100 |
| CCOC(=O)Cn1cc(-c2ccc([N+](=O)[O-])cc2)nn1 | > 100 |
| COc1ccc(-c2cn(C[C@H]3COC(C)(C)O3)nn2)c(OC)c1OC | > 100 |
| O=[N+]([O-])c1ccc(-c2cn(Cc3ccccc3)nn2)cc1 | 5.12 |
| COc1ccc(Cn2cc(-c3ccc(C)cc3)nn2)cc1 | 19.5 |
| COc1ccc(C(O)c2cn(C[C@H]3COC(C)(C)O3)nn2)c(OC)c1OC (stereo partly specified) | > 100 |
| CC1(C)OC[C@H](Cn2cc(-c3ccc4ccccc4c3)nn2)O1 | 12 |
| COc1ccc(-c2cn(CCO)nn2)cc1 | > 100 |
| CC1(C)OC[C@H](Cn2cc(C(O)c3ccc([N+](=O)[O-])cc3)nn2)O1 (stereo partly specified) | > 100 |
| COc1ccc(C(O)c2cn(CCO)nn2)c(OC)c1OC (stereo unspecified) | > 100 |
| Cc1ccc(-c2cn(C[C@H]3COC(C)(C)O3)nn2)cc1 | > 100 |
| CC1(C)OC[C@H](Cn2cc(-c3ccc([N+](=O)[O-])cc3)nn2)O1 | > 100 |
| COc1ccc(Cn2cc(C(O)c3ccc(C)cc3)nn2)cc1 (stereo unspecified) | > 100 |
| COc1ccc(Cn2cc(C(O)c3ccc(OC)cc3)nn2)cc1 (stereo unspecified) | > 100 |

| Structure (SMILES) | IC50 [µM] |
| --- | --- |
| COc1ccc(Cn2cc(C(O)c3ccc([N+](=O)[O-])cc3)nn2)cc1 (stereo unspecified) | > 100 |
| COc1ccc(C(O)c2cn(CCO)nn2)cc1 (stereo unspecified) | > 100 |
| CCOC(=O)Cn1cc(-c2ccc3ccccc3c2)nn1 | > 100 |
| Cc1ccc(C(O)c2cn(C[C@H]3COC(C)(C)O3)nn2)cc1 (stereo partly specified) | > 100 |
| COc1ccc(-c2cn(Cc3ccccc3)nn2)cc1 | > 100 |
| OC(c1ccc(C(F)(F)F)cc1)c1cn(Cc2ccccc2)nn1 (stereo unspecified) | > 100 |
| CCOC(=O)Cn1cc(-c2ccc(OC)c(OC)c2OC)nn1 | > 100 |
| OCCn1cc(-c2ccc(C(F)(F)F)cc2)nn1 | > 100 |
| COc1ccc(-c2cn(Cc3ccccc3)nn2)c(OC)c1OC | 27.5 |
| c1ccc(Cn2cc(-c3ccc4ccccc4c3)nn2)cc1 | 3.89 |
| COc1ccc(Cn2cc(-c3ccc(OC)c(OC)c3OC)nn2)cc1 | > 100 |
| Cc1ccc(-c2cn(CCO)nn2)cc1 | > 100 |
| OCCn1cc(-c2ccc3ccccc3c2)nn1 | > 100 |
| FC(F)(F)c1ccc(-c2cn(Cc3ccccc3)nn2)cc1 | > 100 |
| OC(c1ccc2ccccc2c1)c1cn(Cc2ccccc2)nn1 (stereo unspecified) | 28.8 |
| Cc1ccc(-c2cn(Cc3ccccc3)nn2)cc1 | > 100 |
| CC1(C)OCC(Cn2cc(C(O)c3ccc(C(F)(F)F)cc3)nn2)O1 (racemic) | > 100 |
| CC1(C)OCC(Cn2cc(C(O)c3ccc4ccccc4c3)nn2)O1 (racemic) | 26.9 |
| Cc1ccc(-c2cn(CC3COC(C)(C)O3)nn2)cc1 (racemic) | 41.7 |
| CC1(C)OCC(Cn2cc(-c3ccc([N+](=O)[O-])cc3)nn2)O1 (racemic) | > 100 |
| CC1(C)OCC(Cn2cc(-c3ccc4ccccc4c3)nn2)O1 (racemic) | 6.6 |
| CC1(C)OCC(Cn2cc(-c3ccc(C(F)(F)F)cc3)nn2)O1 (racemic) | 13.5 |
| Cc1ccc(C(O)c2cn(CC3COC(C)(C)O3)nn2)cc1 (racemic) | > 100 |
